The values below come from patent US20090306072A1, “USE OF TYROSINE KINASE INHIBITORS FOR THE TREATMENT OF INFLAMMATORY PROCESSES” (Boehringer Ingelheim Pharma GmbH & Co. KG, priority 2002, published 2009).

For the first data set, the system named is zymosan-induced influx of neutrophilic granulocytes in the mouse ear. In words: Test 2: inhibition of the zymosan-induced influx of neutrophilic granulocytes in the mouse ear (MPO activity). It counts as in vivo. Conditions: female NMRI mice, ear biopsy 24 h after intradermal zymosan; p<0.005. The text has this:
• Test 2: Detection of a general anti-inflammatory principle of activity by inhibition of the zymosan-induced influx of neutrophilic granulocytes in the mouse ear by the EGF-receptor kinase inhibitor 4-[(3-chloro-4-fluoro-phenyl)amino]-6-[(4-dimethylamino-cyclohexyl)amino]-pyrimido[5,4-d]pyrimidine (compound N).
Determining the influx of neutrophilic granulocytes by measuring the myeloperoxidase (MPO) activity in the tissue. MPO is specific for neutrophilic granulocytes.
Female mice (breed: NMRI) weighing 20-25 g were anaesthetised with pentobarbital 60 mg/kg i.p. […] of zymosan dissolved in physiological saline in a volume of […] were administered intradermally into the right ear. 24 h after the intradermal application of zymosan the animals were killed with an overdose of pentobarbital. An ear biopsy (0=8 mm) was taken from the left (untreated) and right (treated) ear and placed in a test tube prepared with 1 ml of 0.5% HTAB. The samples were homogenised for 15 sec with an Ultraturrax. The homogenised preparations were centrifuged for 5 min in an Eppendorf bench centrifuge at 15700 g at ambient temperature. […] After 10 minutes' incubation at ambient temperature the absorption was measured with a spectral photometer at a wavelength of 450 nm.
Regarding `CN(C)C1CCC(Nc2ncc3ncnc(Nc4ccc(F)c(Cl)c4)c3n2)CC1` (stereo not drawn) [compound N, 4-[(3-chloro-4-fluoro-phenyl)amino]-6-[(4-dimethylamino-cyclohexyl)amino]-pyrimido[5,4-d]pyrimidine], the “inhibition of the zymosan-induced increase in the MPO activity in the tissue” value was determined as 60%.

The subject of the next data set is cigarette smoke-induced influx of neutrophilic granulocytes into the lung tissue. In words: Test 1: inhibition of smoke-induced accumulation of granulocytes in the lung tissue (MPO activity). It counts as in vivo, rats (Sprague-Dawley). Conditions: Rattus norvegicus; male rats, smoke from 8 cigarettes a day for 5 days; intratracheal dose each day 30 mins before smoke exposure; lung tissue MPO; linear regression; read-out: ID50 (dosage that produced a 50% inhibition of the MPO activity). The method, then:
Male rats (breed: Sprague-Dawley) weighing from 250-300 g were exposed to the smoke from 8 cigarettes a day for 5 days. […] On the last day of the experiment the animals were killed 4 hours after the final smoke exposure and the lung tissue was removed. From each lung a sample of 70-200 mg was taken and placed in a prepared test tube containing 1 ml of 0.5% hexadecyltrimethyl ammonium bromide. The samples were homogenised for 15 sec with an Ultraturrax. The homogenates were centrifuged off in an Eppendorf bench centrifuge at 15700 g for 5 min at ambient temperature. […] After 10 minutes' incubation at ambient temperature, the absorption was measured with a spectral photometer at a wavelength of 450 nm.
As to `C=CC(=O)Nc1cc2c(Nc3ccc(F)c(Cl)c3)ncnc2cc1OCCCCN1CC(=O)O[C@H](C)C1` [B, 4-[(3-chloro-4-fluoro-phenyl)amino]-7-[4-((R)-6-methyl-2-oxo-morpholin-4-yl)-butyloxy]-6-[(vinylcarbonyl)amino]-quinazoline], the ED50 came to 0.03 mg/kg. In the case of `C=CC(=O)Nc1cc2c(Nc3ccc(F)c(Cl)c3)ncnc2cc1OCCCCN1CC(=O)OC(C)(C)C1` [C, 4-[(3-chloro-4-fluoro-phenyl)amino]-7-[4-(2,2-dimethyl-6-oxo-morpholin-4-yl)-butyloxy]-6-[(vinylcarbonyl)amino]-quinazoline], the ED50 was 0.03 mg/kg. Still for that read-out and setting: the same measure for `C=CC(=O)Nc1cc2c(Nc3ccc(F)c(Cl)c3)ncnc2cc1OCCCCN1CC(=O)O[C@@H](C)C1` [D, 4-[(3-chloro-4-fluoro-phenyl)amino]-7-[4-((S)-6-methyl-2-oxo-morpholin-4-yl)-butyloxy]-6-[(vinylcarbonyl)amino]-quinazoline]: 0.3 mg/kg; for `COCCN(CC=CC(=O)Nc1cc2c(Nc3ccc(F)c(Cl)c3)ncnc2cc1OCC1CC1)CCOC` [E, 4-[(3-chloro-4-fluoro-phenyl)amino]-6-({4-[bis-(2-methoxyethyl)-amino]-1-oxo-2-buten-1-yl}amino)-7-cyclopropylmethoxy-quinazoline]: 0.2 mg/kg. On the same count and under the same terms, the same measure for `C[C@@H]1CN(CC=CC(=O)Nc2cc3c(Nc4ccc(F)c(Cl)c4)ncnc3cc2OCC2CC2)CC(=O)O1` [F, 4-[(3-chloro-4-fluoro-phenyl)amino]-6-{[4-((R)-6-methyl-2-oxo-morpholin-4-yl)-1-oxo-2-buten-1-yl]amino}-7-cyclopropylmethoxy-quinazoline]: 0.3 mg/kg; for `COC[C@@H]1CN(CC=CC(=O)Nc2cc3c(Nc4ccc(F)c(Cl)c4)ncnc3cc2OCC2CC2)CC(=O)O1` [H, 4-[(3-chloro-4-fluoro-phenyl)amino]-6-{[4-((S)-2-methoxymethyl-6-oxo-morpholin-4-yl)-1-oxo-2-buten-1-yl]amino}-7-cyclopropylmethoxy-quinazoline]: 0.3 mg/kg. Same read-out and setting: the same measure for `CCN(CC=CC(=O)Nc1cc2c(N[C@H](C)c3ccccc3)ncnc2cc1OCC1CC1)CCOC` [I, 4-[(R)-(1-phenyl-ethyl)amino]-6-({4-[N-(2-methoxy-ethyl)-N-ethyl-amino]-1-oxo-2-buten-1-yl}amino)-7-cyclopropylmethoxy-quinazoline]: 0.2 mg/kg; for `COCCN(CC=CC(=O)Nc1cc2c(N[C@H](C)c3ccccc3)ncnc2cc1OCC1CC1)CCOC` [K, 4-[(R)-(1-phenyl-ethyl)amino]-6-{[4-(N,N-bis-(2-methoxy-ethyl)-amino)-1-oxo-2-buten-1-yl]amino}-7-cyclopropylmethoxy-quinazoline]: 0.3 mg/kg.

Turning to `C[C@@H](Nc1ncnc2cc(OCC3CC3)c(NC(=O)C=CCN(C)C3CCOCC3)cc12)c1ccccc1` [L, 4-[(R)-(1-phenyl-ethyl)amino]-6-({4-[N-(tetrahydropyran-4-yl)-N-methyl-amino]-1-oxo-2-buten-1-yl}amino)-7-cyclopropylmethoxy-quinazoline], the ED50 is 0.1 mg/kg. Still for that read-out and setting: to `COc1cc2ncnc(Nc3ccc(F)c(Cl)c3)c2cc1OCCN1CC(=O)O[C@@H](C)C1` [compound A, 4-[(3-chloro-4-fluoro-phenyl)amino]-6-[2-((S)-6-methyl-2-oxo-morpholin-4-yl)-ethoxy]-7-methoxy-quinazoline] belongs 0.1 mg/kg.

The same data set, now with this note: male rats, smoke from 8 cigarettes a day for 5 days; intratracheal dose each day 30 mins before smoke exposure; lung tissue MPO; linear regression.
“4-[(3-chloro-4-fluoro-phenyl)amino]-6-[2-((S)-6-methyl-2-oxo-morpholin-4-yl)-ethoxy]-7-methoxy-quinazoline [G]”: the “ID50 (dosage that produced a 50% inhibition of the MPO activity)” value is recorded as under 0.03 mg/kg.

Staying with this data set, now noted: rats, intratracheal 0.03 or 0.1 mg/kg daily, lung tissue myeloperoxidase.
Consider `COc1cc2ncnc(Nc3ccc(F)c(Cl)c3)c2cc1OCCN1CC(=O)O[C@@H](C)C1` [compound A, 4-[(3-chloro-4-fluoro-phenyl)amino]-6-[2-((S)-6-methyl-2-oxo-morpholin-4-yl)-ethoxy]-7-methoxy-quinazoline], for which the “inhibition of the smoke-induced accumulation of granulocytes” value is reported as “significant (p<0.005) inhibition”.

System in a further data set: not given
Assay: not given
Conditions: not given
Consider `C=CC(=O)Nc1cc2c(Nc3ccc(F)c(Cl)c3)ncnc2cc1OCCCCN1CC(=O)OC(C)(C)C1` [C, 4-[(3-chloro-4-fluoro-phenyl)amino]-7-[4-(2,2-dimethyl-6-oxo-morpholin-4-yl)-butyloxy]-6-[(vinylcarbonyl)amino]-quinazoline], for which the melting point (in general, the temperature of the solid-liquid transition) was in the range of 110 to 112 °C.

For the compound `CN(C)CC=CC(=O)Nc1cc2c(Nc3ccc(F)c(Cl)c3)ncnc2cc1OCC1CC1` [Example 3(2), 4-[(3-chloro-4-fluorophenyl)amino]-6-{[4-(N,N-dimethylamino)-1-oxo-2-buten-1-yl]-amino}-7-cyclopropylmethoxy-quinazoline], the melting point is 137 °C. Still for that read-out and setting: the same measure for `CCN(CC)CC=CC(=O)Nc1cc2c(Nc3ccc(F)c(Cl)c3)ncnc2cc1OCC1CC1` [Example 3, 4-[(3-chloro-4-fluorophenyl)amino]-6-{[4-(N,N-diethylamino)-1-oxo-2-buten-1-yl]amino}-7-cyclopropylmethoxy-quinazoline]: 114 °C; for `CCOC(=O)CN(C)CC=CC(=O)Nc1cc2c(Nc3cccc(C)c3)ncnc2cc1OC` [Example 4, 4-[(3-methylphenyl)amino]-6-[(4-{N-[(ethoxycarbonyl)methyl]-N-methylamino}-1-oxo-2-buten-1-yl)amino]-7-methoxy-quinazoline]: 122 to 124 °C; for `C[C@H]1CN(CC=CC(=O)Nc2cc3c(Nc4ccc(F)c(Cl)c4)ncnc3cc2OCC2CC2)CC(=O)O1` [Example 6, 4-[(3-chloro-4-fluoro-phenyl)amino]-6-{[4-((S)-6-methyl-2-oxo-morpholin-4-yl)-1-oxo-2-buten-1-yl]amino}-7-cyclopropylmethoxy-quinazoline]: 173 to 175 °C. On the same count and under the same terms, the same measure for `COc1cc2ncnc(Nc3cccc(Br)c3)c2cc1OCCN1CC(=O)O[C@@H](C)C1` [Example 7, 4-[(3-bromo-phenyl)amino]-6-[2-((S)-6-methyl-2-oxo-morpholin-4-yl)-ethoxy]-7-methoxy-quinazoline]: 190 °C; for `CN(CC=CC(=O)Nc1cc2c(Nc3ccc(F)c(Cl)c3)ncnc2cc1OC1CCCC1)C1CC1` [Example 8(9), 4-[(3-chloro-4-fluorophenyl)amino]-6-{[4-(N-cyclopropyl-N-methyl-amino)-1-oxo-2-buten-1-yl]amino}-7-cyclopentyloxy-quinazoline]: 140 °C; for `CN(C)CC=CC(=O)Nc1cc2c(Nc3ccc(F)c(Cl)c3)ncnc2cc1OC[C@H]1CCCO1` [Example 8(10), 4-[(3-chloro-4-fluorophenyl)amino]-6-{[4-(N,N-dimethylamino)-1-oxo-2-buten-1-yl]-amino}-7-[(R)-(tetrahydrofuran-2-yl)methoxy]-quinazoline]: 110 to 112 °C.
